Measurements as given in the supplement of paper PMC11208160.

Assay: recombinant barcode read abundance after kanamycin selection (control-corrected) (log10(CPM+1)); higher = more efficient recombination; sequences stand for … in AGTGCAGAGAAAATCGGCCAGTTTTCTCTGCCTGCAGTCCGCATGCCGT…ATTTATGCAGCGGACTGCCTTTCTCCCAAAGTGATAAACCGGACAGTATCATGGACCGGTTTTCCCGGTAATCCGTATTTGCAAGGTTGGTTTCACT; site = the 11-nt target
Summary of the method: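 Targets and IS621 bridge RNA target-binding loops were paired in oligos, each with a promoter, a barcode and the J23119-driven first 104 bridge RNA bases. A vector carrying the remaining 73 bp and a T7-inducible recombinase received these by Gibson cloning, and the pool was co-electroporated into E. coli with a donor plasmid. Duplicate plates contained chloramphenicol/ampicillin LB agar (control) or chloramphenicol/ampicillin/kanamycin with 0.1 mM IPTG. Recombination efficiency comes from averaged, control-corrected counts per million of recombinant-junction barcodes, reported as log10(CPM+1).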

| Sequence | recombinant barcode read abundance (log10) |
| --- | --- |
| GGTGCCCGATGGGTTCTAACCTGTTGCCGTC [GGTGCCCCTCG_LTGcore_GA_RTGcore_GA] (site GGTGCCCCTCG) (LTG core: GA, RTG core: GA) | 0.134 |
| GGTGCCCTCTGGGTTCTAACCTGTTGCCGAG [GGTGCCCCTCG_LTGcore_TC_RTGcore_CT] (site GGTGCCCCTCG) (LTG core: TC, RTG core: CT) | 0.0654 |
| GTCGCCCAGTGGGTTCTAACCTGTTGCTAAG [GTCGCCCCTTA_LTGcore_AG_RTGcore_CT] (site GTCGCCCCTTA) (LTG core: AG, RTG core: CT) | 0.139 |
| GTCGCCCAGTGGGTTCTAACCTGTTGCTACT [GTCGCCCCTTA_LTGcore_AG_RTGcore_AG] (site GTCGCCCCTTA) (LTG core: AG, RTG core: AG) | 0.283 |
| GTCGCCCCATGGGTTCTAACCTGTTGCTATG [GTCGCCCCTTA_LTGcore_CA_RTGcore_CA] (site GTCGCCCCTTA) (LTG core: CA, RTG core: CA) | 0.379 |
| GTCGCCCCGTGGGTTCTAACCTGTTGCTAAG [GTCGCCCCTTA_LTGcore_CG_RTGcore_CT] (site GTCGCCCCTTA) (LTG core: CG, RTG core: CT) | 0.325 |
| GTCGCCCCTTGGGTTCTAACCTGTTGCTAGC [GTCGCCCCTTA_LTGcore_CT_RTGcore_GC] (site GTCGCCCCTTA) (LTG core: CT, RTG core: GC) | 0.805 |
| GTCGCCCGATGGGTTCTAACCTGTTGCTAAG [GTCGCCCCTTA_LTGcore_GA_RTGcore_CT] (site GTCGCCCCTTA) (LTG core: GA, RTG core: CT) | 0 |
| GTCGCCCGATGGGTTCTAACCTGTTGCTATC [GTCGCCCCTTA_LTGcore_GA_RTGcore_GA] (site GTCGCCCCTTA) (LTG core: GA, RTG core: GA) | 0.103 |
| GTCGCCCGGTGGGTTCTAACCTGTTGCTACC [GTCGCCCCTTA_LTGcore_GG_RTGcore_GG] (site GTCGCCCCTTA) (LTG core: GG, RTG core: GG) | 0.458 |
| GTCGCCCGTTGGGTTCTAACCTGTTGCTAAG [GTCGCCCCTTA_LTGcore_GT_RTGcore_CT] (site GTCGCCCCTTA) (LTG core: GT, RTG core: CT) | 0.431 |
| GTCGCCCTCTGGGTTCTAACCTGTTGCTAGA [GTCGCCCCTTA_LTGcore_TC_RTGcore_TC] (site GTCGCCCCTTA) (LTG core: TC, RTG core: TC) | 0.236 |
| TAAGAATAATGGGTTCTAACCTGTTGCCTTT [TAAGAATCTAG_LTGcore_AA_RTGcore_AA] (site TAAGAATCTAG) (LTG core: AA, RTG core: AA) | 1.48 |
| TAAGAATATTGGGTTCTAACCTGTTGCCTAT [TAAGAATCTAG_LTGcore_AT_RTGcore_AT] (site TAAGAATCTAG) (LTG core: AT, RTG core: AT) | 0.141 |
| TAAGAATCCTGGGTTCTAACCTGTTGCCTAG [TAAGAATCTAG_LTGcore_CC_RTGcore_CT] (site TAAGAATCTAG) (LTG core: CC, RTG core: CT) | 0.193 |
| TAAGAATCTTGGGTTCTAACCTGTTGCCTCG [TAAGAATCTAG_LTGcore_CT_RTGcore_CG] (site TAAGAATCTAG) (LTG core: CT, RTG core: CG) | 1.61 |
| TAAGAATCTTGGGTTCTAACCTGTTGCCTCT [TAAGAATCTAG_LTGcore_CT_RTGcore_AG] (site TAAGAATCTAG) (LTG core: CT, RTG core: AG) | 0.422 |

| Sequence | recombinant barcode read abundance (log10) |
| --- | --- |
| TAAGAATCTTGGGTTCTAACCTGTTGCCTGA [TAAGAATCTAG_LTGcore_CT_RTGcore_TC] (site TAAGAATCTAG) (LTG core: CT, RTG core: TC) | 0.145 |
| TAAGAATCTTGGGTTCTAACCTGTTGCCTTT [TAAGAATCTAG_LTGcore_CT_RTGcore_AA] (site TAAGAATCTAG) (LTG core: CT, RTG core: AA) | 0.421 |
| TAGAGGGAATGGGTTCTAACCTGTTGCGGTT [TAGAGGGCTCC_LTGcore_AA_RTGcore_AA] (site TAGAGGGCTCC) (LTG core: AA, RTG core: AA) | 0.0221 |
| TAGAGGGACTGGGTTCTAACCTGTTGCGGGT [TAGAGGGCTCC_LTGcore_AC_RTGcore_AC] (site TAGAGGGCTCC) (LTG core: AC, RTG core: AC) | 0.247 |
| TAGAGGGCATGGGTTCTAACCTGTTGCGGTG [TAGAGGGCTCC_LTGcore_CA_RTGcore_CA] (site TAGAGGGCTCC) (LTG core: CA, RTG core: CA) | 0.23 |
| TAGAGGGCTTGGGTTCTAACCTGTTGCGGAG [TAGAGGGCTCC_LTGcore_CT_RTGcore_CT] (site TAGAGGGCTCC) (LTG core: CT, RTG core: CT) | 2.86 |
| TAGAGGGCTTGGGTTCTAACCTGTTGCGGCC [TAGAGGGCTCC_LTGcore_CT_RTGcore_GG] (site TAGAGGGCTCC) (LTG core: CT, RTG core: GG) | 0.0898 |
| TAGAGGGCTTGGGTTCTAACCTGTTGCGGGA [TAGAGGGCTCC_LTGcore_CT_RTGcore_TC] (site TAGAGGGCTCC) (LTG core: CT, RTG core: TC) | 0.378 |
| TAGAGGGCTTGGGTTCTAACCTGTTGCGGGT [TAGAGGGCTCC_LTGcore_CT_RTGcore_AC] (site TAGAGGGCTCC) (LTG core: CT, RTG core: AC) | 0.122 |
| TAGAGGGCTTGGGTTCTAACCTGTTGCGGTC [TAGAGGGCTCC_LTGcore_CT_RTGcore_GA] (site TAGAGGGCTCC) (LTG core: CT, RTG core: GA) | 0.158 |
| TAGAGGGCTTGGGTTCTAACCTGTTGCGGTT [TAGAGGGCTCC_LTGcore_CT_RTGcore_AA] (site TAGAGGGCTCC) (LTG core: CT, RTG core: AA) | 0.0916 |
| TAGAGGGGATGGGTTCTAACCTGTTGCGGAG [TAGAGGGCTCC_LTGcore_GA_RTGcore_CT] (site TAGAGGGCTCC) (LTG core: GA, RTG core: CT) | 0.441 |
| TCGCGACCATGGGTTCTAACCTGTTGCCGAG [TCGCGACCTCG_LTGcore_CA_RTGcore_CT] (site TCGCGACCTCG) (LTG core: CA, RTG core: CT) | 0.0739 |
| TCGCGACCTTGGGTTCTAACCTGTTGCCGCG [TCGCGACCTCG_LTGcore_CT_RTGcore_CG] (site TCGCGACCTCG) (LTG core: CT, RTG core: CG) | 0.436 |
| TCGCGACCTTGGGTTCTAACCTGTTGCCGGA [TCGCGACCTCG_LTGcore_CT_RTGcore_TC] (site TCGCGACCTCG) (LTG core: CT, RTG core: TC) | 0.26 |
| TCGCGACCTTGGGTTCTAACCTGTTGCCGTA [TCGCGACCTCG_LTGcore_CT_RTGcore_TA] (site TCGCGACCTCG) (LTG core: CT, RTG core: TA) | 0.0883 |
| TCGCGACTCTGGGTTCTAACCTGTTGCCGAG [TCGCGACCTCG_LTGcore_TC_RTGcore_CT] (site TCGCGACCTCG) (LTG core: TC, RTG core: CT) | 0.0502 |
